Assay results taken from the supplement of paper PMC10307832.

What was measured:
Assay in all cases: relative viability (nuclei count vs DMSO), 5 days (fraction); higher = more cells survive
[1] = compound: C1COCCN1C2=NC(=NC3=C2OC4=C3C=CC=N4)C5=CC(=CC=C5)NC(=O)C6=CN=C(C=C6)N + CS(=O)(=O)N1CCN(Cc2cc3nc(-c4cccc5[nH]ncc45)nc(N4CCOCC4)c3s2)CC1 [Pictilisib] (partner 1 µM)
Summary of the method: (§1)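 Five library-drug doses in √10 steps were combined with a fixed anchor-drug dose, or a single drug was given alone, by pin tool to lung cancer cell lines in 1536-well plates the day after seeding. Nuclei were stained and counted after 5 days. Relative viability is the nuclei count in treated wells over that in vehicle wells, taken as the median of duplicate plates.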

SGI-1776 + Phenformin = compound: CN1CCC(CNc2ccc3ncc(-c4cccc(OC(F)(F)F)c4)n3n2)CC1 [SGI-1776] + N=C(N)NC(=N)NCCc1ccccc1 [Phenformin] (partner 250 µM)
Summary of the method: as §1

SGI-1776 + Olaparib = compound: CN1CCC(CNc2ccc3ncc(-c4cccc(OC(F)(F)F)c4)n3n2)CC1 [SGI-1776] + O=C(c1cc(Cc2n[nH]c(=O)c3ccccc23)ccc1F)N1CCN(C(=O)C2CC2)CC1 [Olaparib] (partner 8 µM)
Summary of the method: as §1

Entinostat + Crizotinib = compound: Nc1ccccc1NC(=O)c1ccc(CNC(=O)OCc2cccnc2)cc1 [Entinostat] + C[C@@H](Oc1cc(-c2cnn(C3CCNCC3)c2)cnc1N)c1c(Cl)ccc(F)c1Cl [Crizotinib] (partner 1 µM)
Summary of the method: as §1

Cell Line | relative viability ([1]; first compound 0.02 µM) | relative viability ([1]; first compound 0.06325 µM) | relative viability ([1]; first compound 0.2 µM) | relative viability ([1]; first compound 0.6325 µM) | relative viability ([1]; first compound 2 µM) | relative viability (SGI-1776 + Phenformin; first compound 0.08 µM) | relative viability (SGI-1776 + Phenformin; first compound 0.8 µM) | relative viability (SGI-1776 + Phenformin; first compound 2.53 µM) | relative viability (SGI-1776 + Phenformin; first compound 8 µM) | relative viability (SGI-1776 + Olaparib; first compound 0.08 µM) | relative viability (SGI-1776 + Olaparib; first compound 0.8 µM) | relative viability (SGI-1776 + Olaparib; first compound 2.53 µM) | relative viability (SGI-1776 + Olaparib; first compound 8 µM) | relative viability (Entinostat + Crizotinib; first compound 0.02 µM) | relative viability (Entinostat + Crizotinib; first compound 0.06325 µM) | relative viability (Entinostat + Crizotinib; first compound 0.2 µM) | relative viability (Entinostat + Crizotinib; first compound 0.6325 µM) | relative viability (Entinostat + Crizotinib; first compound 2 µM)
201T | 0.661 | 0.66 | 0.654 | 0.735 | 0.696 | 0.442 | 0.461 | 0.415 | 0.471 | 0.856 | 0.893 | 0.854 | 0.9 | 1.03 | 1.03 | 0.919 | 0.743 | 0.754
A549 | 0.628 | 0.577 | 0.397 | 0.391 | 0.24 | 0.122 | 0.148 | 0.11 | 0.155 | 0.39 | 0.395 | 0.389 | 0.312 | 0.775 | 0.863 | 0.743 | 0.449 | 0.111
A-427 | 0.696 | 0.621 | 0.675 | 0.653 | 0.507 | 0.258 | 0.277 | 0.275 | 0.209 | 0.724 | 0.723 | 0.739 | 0.569 | 0.808 | 1.06 | 0.864 | 0.665 | 0.545
ABC-1 | 0.711 | 0.717 | 0.773 | 0.768 | 0.609 | 0.23 | 0.24 | 0.219 | 0.236 | 0.78 | 0.874 | 0.5 | 0.842 | 0.925 | 1.24 | 1.17 | 0.814 | 0.28
BEN | 0.587 | 0.556 | 0.597 | 0.501 | 0.589 | 0.282 | 0.269 | 0.303 | 0.306 | 1.01 | 1.15 | 1.07 | 0.966 | 0.985 | 0.884 | 0.997 | 0.631 | 0.31
CAL-12T | 0.464 | 0.479 | 0.391 | 0.356 | 0.455 | 0.558 | 0.647 | 0.531 | 0.558 | 0.713 | 0.738 | 0.833 | 0.696 | 0.7 | 0.732 | 0.864 | 0.594 | 0.251
COR-L23 | 1.02 | 1.21 | 0.845 | 0.843 | 0.574 | 0.488 | 0.479 | 0.444 | 0.358 | 0.345 | 0.396 | 0.377 | 0.275 | 0.508 | 0.524 | 0.513 | 0.205 | 0.0924
COR-L 105 | 0.433 | 0.351 | 0.389 | 0.344 | 0.33 | 0.559 | 0.512 | 0.452 | 0.315 | 0.775 | 0.726 | 0.77 | 0.631 | 0.92 | 0.778 | 0.655 | 0.494 | 0.216
Calu-6 | 1.03 | 0.932 | 0.87 | 0.888 | 0.472 |  |  |  |  | 0.61 | 0.559 | 0.642 | 0.474 | 0.738 | 0.713 | 0.755 | 0.494 | 0.317
ChaGo-K-1 | 0.789 | 0.61 | 0.547 | 0.633 | 0.624 | 0.491 | 0.526 | 0.458 | 0.408 | 0.393 | 0.487 | 0.405 | 0.45 | 1.18 | 1.19 | 0.967 | 0.966 | 0.631
EBC-1 | 0.409 | 0.432 | 0.307 | 0.295 | 0.293 |  |  |  |  | 0.74 | 0.732 | 0.687 | 0.573 | 0.177 | 0.191 | 0.215 | 0.202 | 0.159
EKVX | 0.408 | 0.408 | 0.44 | 0.379 | 0.439 | 0.237 | 0.241 | 0.24 | 0.241 | 0.827 | 0.906 | 0.875 | 0.737 | 0.81 | 0.977 | 1.03 | 0.819 | 0.432
EMC-BAC-2 | 0.495 | 0.526 | 0.516 | 0.523 | 0.465 | 0.517 | 0.475 | 0.469 | 0.419 | 0.504 | 0.506 | 0.509 | 0.452 | 0.812 | 0.702 | 0.708 | 0.522 | 0.368
EPLC-272H | 0.292 | 0.297 | 0.264 | 0.308 | 0.288 | 0.261 | 0.326 | 0.352 | 0.246 | 1.01 | 0.922 | 0.737 | 0.348 | 0.924 | 0.872 | 0.933 | 0.61 | 0.322
H3255 | 0.417 | 0.495 | 0.458 | 0.505 | 0.432 | 0.372 | 0.391 | 0.331 | 0.325 | 0.563 | 0.595 | 0.646 | 0.529 | 0.9 | 0.747 | 0.777 | 0.452 | 0.286
